Measurements from US10844023B2 (Washington University, priority 2017, dated 2020).

Tested on: Mfn2 null MEFs
Assay: Mitochondrial elongation (aspect ratio) fusogenicity assay
Type: cell-based, mouse
Parameters: % long compare to B: dose or concentration left out as unconfirmed
Details: mitochondrial elongation relative to Cpd B (B01 = 100); Mfn2 null MEFs, compound overnight as printed (FIG. 48)
Description: A cultured murine embryonic fibroblast assay system was used in which mitochondrial elongation (an increase in aspect ratio) reflects enhanced mitochondrial fusion.
A pharmacophore model was generated based on the interactions of HR1 and HR2 domains in the calculated structural model of Mfn2 in the closed conformation. The key features included hydrophobic interactions involving Mfn2 HR1: Val372 and Met376, and aromatic interactions and hydrogen bonding involving Mfn2 HR1 His380. […] A library comprising ˜14 million commercially available compounds was prepared in silico and evaluated using PHASE to fit these criteria. Top ranked hits were clustered, and filtered based on pharmacological properties using Qikprop. The top 55 (see TABLE 4) commercially available small molecules conforming to the model were selected for functional screening and purchased in 1 mg aliquots. […] Images were acquired by confocal microscopy. Each compound was scored for fusogenicity (see e.g., FIG. 24A) and % cell death (see e.g., FIG. 24B).
Cells were excited with 408 nm (Hoechst), […] (MitoTracker Green and Calcein AM, GFP), or 637 nm (TMRE, MitoTracker Orange, Ethidium homodimer-1, and AF594-Dextran) laser diodes. For mitochondrial elongation studies mitochondrial aspect ratio (long axis/short axis) was calculated using automated edge detection and Image J software. Mitochondrial depolarization was calculated as % of green mitochondria visualized on MitoTracker Green and TMRE merged images, expressed as green/(green+yellow mitochondria)×100.

Compound | % long compare to B
CC(Sc1nnc(C2CC2)n1Cc1ccccc1)C(=O)Nc1sc2c(c1C(N)=O)CCC2 (centres unmarked) [1-C7, 2-{2-[(4-benzyl-5-cyclopropyl-4H-1,2,4-triazol-3-yl)sulfanyl]-propanamido}-4H,5H,6H-cyclopenta[b]thiophene-3-carboxamide] | −9%
NC(=O)c1c(NC(=O)CSc2nnc(Cc3cccs3)n2-c2ccccc2)sc2c1CCC2 [1-C8, 2-[2-({4-phenyl-5-[(thiophen-2-yl)methyl]-4H-1,2,4-triazol-3-yl}sulfanyl)acetamido]-4H,5H,6H-cyclopenta[b]thio-phene-3-carboxamide] | 35%
Cc1occc1-c1nnc(SC(C)C(=O)Nc2sc3c(c2C(N)=O)CCC3)n1C (centres unmarked) [1-C9, 2-(2-{[4-methyl-5-(2-methylfuran-3-yl)-4H-1,2,4-triazol-3-yl]sulfanyl}propanamido)-4H,5H,6H-cyclopenta[b]thio-phene-3-carboxamide] | −3%
COC(=O)c1c(NC(=O)CSc2nnc(C)n2-c2ccccc2)sc2c1CCC2 [1-C10, methyl 2-{2-[(5-methyl-4-phenyl-4H-1,2,4-triazol-3-yl)sulfanyl]acetamido}-4H,5H,6H-cyclopenta[b]thiophene-3-carboxylate] | 39%
Cn1c(Cc2cccs2)nnc1SCC(=O)Nc1sc2c(c1C(N)=O)CCC2 [1-C11, 2-[2-({4-methyl-5-[(thiophen-2-yl)methyl]-4H-1,2,4-triazol-3-yl}sulfanyl)acetamido]-4H,5H,6H-cyclopenta[b]thio-phene-3-carboxamide] | 1%
CC(Sc1nnc(-c2cccs2)n1C1CC1)C(=O)Nc1sc2c(c1C(N)=O)CCC2 (centres unmarked) [1-C12, 2-(2-{[4-cyclopropyl-5-(thiophen-2-yl)-4H-1,2,4-triazol-3-yl]-sulfanyl}propanamido)-4H,5H,6H-cyclopenta[b]-thiophene-3-carboxamide] | 13%
CCC(c1nnc(SCC(=O)Nc2sc3c(c2C(N)=O)CCC3)n1Cc1ccccc1)N(C)C (centres unmarked) [1-D1, 2-[2-({4-benzyl-5-[1-(dimethyl-amino)propyl]-4H-1,2,4-triazol-3-yl}sulfanyl)acetamido]-4H,5H,6H-cyclopenta[b]thio-phene-3-carboxamide] | 23%
COc1ccc(-n2cnnc2SCC(=O)Nc2sc3c(c2C(N)=O)CCC3)cc1 [1-D2, 2-(2-{[4-(4-methoxyphenyl)-4H-1,2,4-triazol-3-yl]sul-fanyl}acetamido)-4H,5H,6H-cyclopenta[b]thiophene-3-carboxamide] | 128%
O=C(CSc1nnc2n1CCCCC2)Nc1sc2c(c1C(=O)NCc1ccccc1)CCCC2 [1-D4, N-benzyl-2-(2-{5H,6H,7H,8H,9H-[1,2,4]triazolo[4,3-a]azepin-3-ylsulfanyl}acetamido)-4,5,6,7-tetrahydro-1-benzothiophene-3-carboxamide] | 105%
CC(Sc1nnc(-c2ccccc2)n1Cc1ccco1)C(=O)Nc1sc2c(c1C(N)=O)CCC2 (centres unmarked) [1-D7, 2-[2-({4-[(furan-2-yl)methyl]-5-phenyl-4H-1,2,4-triazol-3-yl}sulfanyl)propanamido]-4H,5H,6H-cyclopenta[b]thio-phene-3-carboxamide] | 92%
Cn1c(CC2CCS(=O)(=O)C2)nnc1SCC(=O)Nc1sc2c(c1C(N)=O)CCC2 (centres unmarked) [1-D9, 2-[2-({5-[(1,1-dioxo-1λ^6-thiolan-3-yl)methyl]-4-methyl-4H-1,2,4-triazol-3-yl}sulfanyl)acetamido]-4H,5H,6H-cyclopenta-[b]thiophene-3-carboxamide] | 5%
CCn1c(SCC(=O)Nc2sc3c(c2C(N)=O)CCC(C)C3)nnc1C1CC1 (centres unmarked) [1-D11, 2-{2-[(5-cyclopropyl-4-ethyl-4H-1,2,4-triazol-3-yl)sulfanyl]acetamido}-6-methyl-4,5,6,7-tetrahydro-1-benzothiophene-3-carboxamide] | 6%
CC(Sc1nnc2n1CCCCC2)C(=O)Nc1sc2c(c1C(N)=O)CCC2 (centres unmarked) [1-D12, 2-(2-{5H,6H,7H,8H,9H-[1,2,4]triazolo[4,3-a]azepin-3-ylsulfanyl}propanamido)-4H,5H,6H-cyclopenta[b]-thiophene-3-carboxamide] | 18%
C=CCn1c(SCC(=O)Nc2sc3c(c2C(N)=O)CCC3)nnc1C1CCCCC1 [1-E1, 2-(2-{[5-cyclohexyl-4-(prop-2-en-1-yl)-4H-1,2,4-triazol-3-yl}sulfanyl]acetamido)-4H,5H,6H-cyclopenta[b]thio-phene-3-carboxamide] | 38%
COc1ccccc1-n1cnnc1SCC(=O)Nc1sc2c(c1C(N)=O)CCC2 [1-E2, 2-(2-{[4-(2-methoxyphenyl)-4H-1,2,4-triazol-3-yl]sulfanyl}acet-amido)-4H,5H,6H-cyclopenta-[b]thiophene-3-carboxamide] | 17%
CC1CCc2c(sc(NC(=O)CSc3nnc(C4CC4)n3Cc3ccccc3)c2C(N)=O)C1 (centres unmarked) [1-E3, 2-{2-[(4-benzyl-5-cyclopropyl-4H-1,2,4-triazol-3-yl)sulfanyl]acetamido}-6-methyl-4,5,6,7-tetrahydro-1-benzothiophene-3-carboxamide] | 11%
COc1ccc(NC(=O)c2c(NC(=O)CSc3nnc(C4CC4)n3C)sc3c2CCCC3)cc1 [1-E4, 2-{2-[(5-cyclopropyl-4-methyl-4H-1,2,4-triazol-3-yl)sulfanyl]acetamido}-N-(4-methoxyphenyl)-4,5,6,7-tetrahydro-1-benzothiophene-3-carboxamide] | 17%
NC(=O)c1c(NC(=O)CSc2nnc(C3CC3)n2-c2ccccc2)sc2c1CCCC2 [1-E5, 2-{2-[(5-cyclopropyl-4-phenyl-4H-1,2,4-triazol-3-yl)sulfanyl]-acetamido}-4,5,6,7-tetrahydro-1-benzothiophene-3-carboxamide] | −3%
CCn1c(SCC(=O)Nc2sc3c(c2C(=O)NCc2ccccc2)CCCC3)nnc1C1CC1 [1-E6, N-benzyl-2-{2-[(5-cyclopropyl-4-ethyl-4H-1,2,4-triazol-3-yl)sulfanyl]acetamido}-4,5,6,7-tetrahydro-1-benzothiophene-3-carboxamide] | 10%
Cc1ccccc1-c1nnc(SCC(=O)Nc2sc3c(c2C(N)=O)CCC3)n1C [1-E7, 2-(2-{[4-methyl-5-(2-methyl-phenyl)-4H-1,2,4-triazol-3-yl]sulfanyl}acetamido)-4H,5H,6H-cyclopenta[b]-thiophene-3-carboxamide] | 9%
CC(Sc1nccn1-c1cccc(F)c1)C(=O)Nc1sc2c(c1C(N)=O)CCC2 (centres unmarked) [1-E8, 2-(2-{[1-(3-fluorophenyl)-1H-imidazol-2-yl]sulfanyl}pro-panamido)-4H,5H,6H-cyclo-penta[b]thiophene-3-carboxamide] | 5%
CC(Sc1nnc(CC2CCS(=O)(=O)C2)n1C)C(=O)Nc1sc2c(c1C(N)=O)CCC2 (centres unmarked) [1-E9, 2-[2-({5-[(1,1-dioxo-1λ^6-thiolan-3-yl)methyl]-4-methyl-4H-1,2,4-triazol-3-yl}sulfanyl)propanamido]-4H,5H,6H-cyclopenta[b]thio-phene-3-carboxamide] | 0%
Cc1cccc(-n2ccnc2SC(C)C(=O)Nc2sc3c(c2C(N)=O)CCC3)c1C (centres unmarked) [1-E10, 2-(2-{[1-(2,3-dimethylphenyl)-1H-imidazol-2-yl]sulfanyl}pro-panamido)-4H,5H,6H-cyclo-penta[b]thiophene-3-carboxamide] | 21%
NC(=O)c1c(NC(=O)CSc2nnc(-c3ccco3)n2-c2ccccc2)sc2c1CCC2 [1-F1, 2-(2-{[5-(furan-2-yl)-4-phenyl-4H-1,2,4-triazol-3-yl]sulfanyl}-acetamido)-4H,5H,6H-cyclo-penta[b]thiophene-3-carboxamide] | 21%
C=CCn1c(SCC(=O)Nc2sc3c(c2C(N)=O)CCC3)nnc1-c1ccccc1 [1-F2, 2-(2-{[5-phenyl-4-(prop-2-en-1-yl)-4H-1,2,4-triazol-3-yl]sulfanyl}acetamido)-4H,5H,6H-cyclopenta[b]thio-phene-3-carboxamide] | −10%
Cc1ccc(-n2c(C)nnc2SCC(=O)Nc2sc3c(c2C(N)=O)CCC3)cc1 [1-F3, 2-(2-{[5-methyl-4-(4-methylphenyl)-4H-1,2,4-triazol-3-yl]sulfanyl}acetamido)-4H,5H,6H-cyclopenta[b]-thiophene-3-carboxamide] | 13%
COc1ccccc1-n1c(C)nnc1SCC(=O)Nc1sc2c(c1C(N)=O)CCCC2 [1-F4, 2-(2-{[4-(2-methoxyphenyl)-5-methyl-4H-1,2,4-triazol-3-yl]sulfanyl}acetamido)-4,5,6,7-tetrahydro-1-benzothiophene-3-carboxamide] | 22%
CCn1c(SCC(=O)Nc2sc3c(c2C(N)=O)CCCC3)nnc1C1CC1 [1-F5, 2-{2-[(5-cyclopropyl-4-ethyl-4H-1,2,4-triazol-3-yl)sulfanyl]acet-amido}-4,5,6,7-tetrahydro-1-benzothiophene-3-carboxamide] | −7%
CC(c1nnc(SCC(=O)Nc2sc3c(c2C(N)=O)CCC3)n1-c1ccc(F)cc1)N(C)C (centres unmarked) [1-F6, 2-[2-({5-[1-(dimethylamino)ethyl]-4-(4-fluorophenyl)-4H-1,2,4-triazol-3-yl}sulfanyl)acetamido]-4H,5H,6H-cyclopenta[b]thio-phene-3-carboxamide] | 30%
